Source: patent EP0179667B1, “N6-substituted adenosines” (priority 1984, dated 1986)

Tests used:
Swiss-Webster male mice [1] = test: Mouse Activity and Screen Test Procedure (MAST): screen test (ST); type: in vivo; settings: one hour postinjection
Swiss-Webster male mice [2] = test: Mouse Activity and Screen Test Procedure (MAST): locomotor activity in actophotometer; type: in vivo; settings: one hour prior to testing
adenosine A2 receptor = target: T1, adenosine A2 receptor (Rattus norvegicus, UniProt P30543); test: Adenosine Receptor Binding - A2 Receptor Affinity (RBA2); settings: [3H]NECA, rat striatal membranes; read-out: RBA-2
T1 construct: 5 mg original tissue weight of rat weight of rat striatal membranes; tissue Pel-Freez (Rogers, Arkansas); host or cells: rat striatum, membrane preparation
T1 sequence (P30543 whole entry): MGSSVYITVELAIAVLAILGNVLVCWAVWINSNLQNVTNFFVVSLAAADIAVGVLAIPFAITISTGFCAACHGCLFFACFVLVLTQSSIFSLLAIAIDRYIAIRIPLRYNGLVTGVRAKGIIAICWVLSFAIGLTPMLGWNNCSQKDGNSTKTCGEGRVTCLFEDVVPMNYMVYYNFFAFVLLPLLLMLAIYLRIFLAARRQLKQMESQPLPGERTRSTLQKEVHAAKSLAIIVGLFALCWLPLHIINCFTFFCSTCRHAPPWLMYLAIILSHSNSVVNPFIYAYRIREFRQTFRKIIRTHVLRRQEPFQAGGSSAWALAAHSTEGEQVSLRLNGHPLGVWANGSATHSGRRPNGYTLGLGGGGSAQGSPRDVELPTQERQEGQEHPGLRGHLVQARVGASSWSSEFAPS

Cc1cc(C)c2c(c1)C(Nc1ncnc3c1ncn3[C@@H]1O[C@H](CO)[C@@H](O)[C@H]1O)CCC2 (stereo partly drawn) [Example 18, N^6-[1-(5,7-dimethyl)-tetralinya]-adenosine]
Screen test failure (Swiss-Webster male mice [1]; 1 mg/kg intraperitoneally): 11%
Screen test failure (Swiss-Webster male mice [1]; 3 mg/kg intraperitoneally): 11%
Screen test failure (Swiss-Webster male mice [1]; 10 mg/kg intraperitoneally): 0%
Screen test failure (Swiss-Webster male mice [1]; 30 mg/kg intraperitoneally): 0%
Inhibition of mouse locomotor activity (Swiss-Webster male mice [2]; 1 mg/kg intraperitoneally): 44%
Inhibition of mouse locomotor activity (Swiss-Webster male mice [2]; 3 mg/kg intraperitoneally): 73%
Inhibition of mouse locomotor activity (Swiss-Webster male mice [2]; 10 mg/kg intraperitoneally): 91%
Inhibition of mouse locomotor activity (Swiss-Webster male mice [2]; 30 mg/kg intraperitoneally): 96%
IC50 (adenosine A2 receptor): 366 nM
